What follows are molecules tested against His-tagged N-terminal ATP binding domain (amino acid residues 9-236) of HSP90α (Homo sapiens, UniProt P07900) (assay: HSP90 inhibitor binding potency: TRF competition binding assay). Details: Table 4; competition with biotinylated radicicol.
How it was run: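 Competition against biotinylated radicicol for binding to the His-tagged 9-236 ATP domain of HSP90α: 2 h, room temperature, HEPES/MgCl2/KCl/BSA buffer. Streptavidin capture, then europium-labeled anti-His antibody and enhancement solution; europium counts give IC50.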

Row | SMILES | IC50 [µM]
1 | COc1cccc(-c2cc(F)ccc2[C@H]2Cc3nc(N)nc(C)c3C(=O)N2)c1OC [Compound 213, (R)-2-Amino-7-(5-fluoro-2′,3′-dimethoxy-biphenyl-2-yl)-4-methyl-7,8-dihydro-6H-pyrido[4,3-d]pyrimidin-5-one] | < 10
2 | CCOc1nc(-c2cc(F)ccc2[C@H]2Cc3nc(N)ncc3C(=O)N2)cnc1N [Compound 214, (R)-2-Amino-7-[2-(5-amino-6-ethoxy-pyrazin-2-yl)-4-fluoro-phenyl]-7,8-dihydro-6H-pyrido[4,3-d]pyrimidin-5-one] | < 10
3 | CCc1nc(N)nc2c1C(=O)N[C@@H](c1ccc(F)cc1-c1csc(OC)n1)C2 [Compound 215, (R)-2-Amino-4-ethyl-7-[4-fluoro-2-(2-methoxy-thiazol-4-yl)-phenyl]-7,8-dihydro-6H-pyrido[4,3-d]pyrimidin-5-one] | < 10
4 | CCOc1cncc(-c2cc(F)ccc2[C@H]2Cc3nc(N)nc(C)c3C(=O)N2)n1 [Compound 216, (R)-2-Amino-7-[2-(6-ethoxy-pyrazin-2-yl)-4-fluoro-phenyl]-4-methyl-7,8-dihydro-6H-pyrido[4,3-d]pyrimidin-5-one] | < 10
5 | CCOc1cncc(-c2cc(F)ccc2[C@H]2Cc3nc(N)nc(CC)c3C(=O)N2)n1 [Compound 217, (R)-2-Amino-7-[2-(6-ethoxy-pyrazin-2-yl)-4-fluoro-phenyl]-4-ethyl-7,8-dihydro-6H-pyrido[4,3-d]pyrimidin-5-one] | < 10
6 | CCOc1cncc(-c2cc(F)ccc2[C@H]2Cc3nc(N)ncc3C(=O)N2)n1 [Compound 218, (R)-2-Amino-7-[2-(6-ethoxy-pyrazin-2-yl)-4-fluoro-phenyl]-7,8-dihydro-6H-pyrido[4,3-d]pyrimidin-5-one] | < 10
7 | Cc1nc(N)nc2c1C(=O)N[C@@H](c1ccc(F)cc1C#N)C2 [Compound 219, 2-((R)-2-Amino-4-methyl-5-oxo-5,6,7,8-tetrahydro-pyrido[4,3-d]pyrimidin-7-yl)-5-fluoro-benzonitrile] | ≥ 10
8 | CCOc1cncc(-c2ccccc2[C@H]2Cc3nc(N)nc(C)c3C(=O)N2)n1 [Compound 220, (R)-2-Amino-7-[2-(6-ethoxy-pyrazin-2-yl)-phenyl]-4-methyl-7,8-dihydro-6H-pyrido[4,3-d]pyrimidin-5-one] | < 10
9 | COc1nc(-c2ccccc2[C@H]2Cc3nc(N)nc(C)c3C(=O)N2)ncc1C [Compound 221, (R)-2-Amino-7-[2-(4-methoxy-5-methyl-pyrimidin-2-yl)-phenyl]-4-methyl-7,8-dihydro-6H-pyrido[4,3-d]pyrimidin-5-one] | < 10
10 | Cc1nc(N)nc2c1C(=O)N[C@@H](c1ccc(F)cc1-c1n[nH]c(=O)o1)C2 [Compound 222, (R)-2-Amino-7-[4-fluoro-2-(5-oxo-4,5-dihydro-[1,3,4]oxadiazol-2-yl)-phenyl]-4-methyl-7,8-dihydro-6H-pyrido[4,3-d]pyrimi[…]din-5-one] | ≥ 10
11 | COc1nnc(-c2cc(F)ccc2[C@H]2Cc3nc(N)nc(C)c3C(=O)N2)o1 [Compound 223, (R)-2-Amino-7-[4-fluoro-2-(5-methoxy-[1,3,4]oxadiazol-2-yl)-phenyl]-4-methyl-7,8-dihydro-6H-pyrido[4,3-d]pyrimidin-5-one] | < 10
12 | COc1cncc(-c2scnc2[C@@H]2Cc3nc(N)ncc3C(=O)N2)n1 [Compound 224, (S)-2-Amino-7-[5-(6-methoxy-pyrazin-2-yl)-thiazol-4-yl]-7,8-dihydro-6H-pyrido[4,3-d]pyrimidin-5-one] | < 10
13 | COc1ncc(-c2cc(F)ccc2[C@H]2Cc3nc(N)nc(C)c3C(=O)N2)s1 [Compound 225, (R)-2-Amino-7-[4-fluoro-2-(2-methoxy-thiazol-5-yl)-phenyl]-4-methyl-7,8-dihydro-6H-pyrido[4,3-d]pyrimidin-5-one] | < 10
14 | CCOc1nc(-c2cc(F)ccc2[C@H]2Cc3nc(N)nc(CC)c3C(=O)N2)cnc1N [Compound 226, (R)-2-Amino-7-[2-(5-amino-6-ethoxy-pyrazin-2-yl)-4-fluoro-phenyl]-4-ethyl-7,8-dihydro-6H-pyrido[4,3-d]pyrimidin-5-one] | < 10
15 | COc1ccc([C@H]2Cc3nc(N)nc(C)c3C(=O)N2)c(-c2cncc(OC)n2)c1 [Compound 227, (R)-2-Amino-7-[4-methoxy-2-(6-methoxy-pyrazin-2-yl)-phenyl]-4-methyl-7,8-dihydro-6H-pyrido[4,3-d]pyrimidin-5-one] | < 10
16 | COc1nc(-c2ccccc2[C@H]2Cc3nc(N)ncc3C(=O)N2)cnc1N [Compound 229, (R)-2-Amino-7-[2-(5-amino-6-methoxy-pyrazin-2-yl)-phenyl]-7,8-dihydro-6H-pyrido[4,3-d]pyrimidin-5-one] | < 10
17 | CCOc1nc(-c2ccccc2[C@H]2Cc3nc(N)nc(C)c3C(=O)N2)cs1 [Compound 230, (R)-2-Amino-7-[2-(2-ethoxy-thiazol-4-yl)-phenyl]-4-methyl-7,8-dihydro-6H-pyrido[4,3-d]pyrimidin-5-one] | < 10
18 | CCOc1nc(-c2cc(F)ccc2[C@H]2Cc3nc(N)nc(C)c3C(=O)N2)cs1 [Compound 231, (R)-2-Amino-7-[2-(2-ethoxy-thiazol-4-yl)-4-fluoro-phenyl]-4-methyl-7,8-dihydro-6H-pyrido[4,3-d]pyrimidin-5-one] | < 10
19 | COc1cccc(-c2scnc2[C@@H]2Cc3nc(N)nc(C)c3C(=O)N2)n1 [Compound 232, (S)-2-Amino-7-[5-(6-methoxy-pyridin-2-yl)-thiazol-4-yl]-4-methyl-7,8-dihydro-6H-pyrido[4,3-d]pyrimidin-5-one] | < 10
20 | COc1cncc(-c2scnc2[C@@H]2Cc3nc(N)nc(C)c3C(=O)N2)n1 [Compound 233, (S)-2-Amino-7-[5-(6-methoxy-pyrazin-2-yl)-thiazol-4-yl]-4-methyl-7,8-dihydro-6H-pyrido[4,3-d]pyrimidin-5-one] | < 10
21 | CCOc1nc(-c2ccccc2[C@H]2Cc3nc(N)ncc3C(=O)N2)cnc1N [Compound 234, (R)-2-Amino-7-[2-(5-amino-6-ethoxy-pyrazin-2-yl)-phenyl]-7,8-dihydro-6H-pyrido[4,3-d]pyrimidin-5-one] | < 10
22 | CCc1nc(-c2ccccc2[C@H]2Cc3nc(N)nc(C)c3C(=O)N2)cnc1N [Compound 235, (R)-2-Ammo-7-[2-(5-amino-6-ethyl-pyrazin-2-yl)-phenyl]-4-methyl-7,8-dihydro-6H-pyrido[4,3-d]pyrimidin-5-one] | < 10
23 | COc1ccc([C@H]2Cc3nc(N)nc(C)c3C(=O)N2)c(Br)c1 [Compound 236, (R)-2-Amino-7-(2-bromo-4-methoxy-phenyl)-4-methyl-7,8-dihydro-6H-pyrido[4,3-d]pyrimidin-5-one] | ≥ 10
24 | COc1ccc([C@H]2Cc3nc(N)nc(C)c3C(=O)N2)c(-c2cccc(OC)n2)c1 [Compound 237, (R)-2-Amino-7-[4-methoxy-2-(6-methoxy-pyridin-2-yl)-phenyl]-4-methyl-7,8-dihydro-6H-pyrido[4,3-d]pyrimidin-5-one] | < 10
25 | CCOc1nc(-c2cc(OC)ccc2[C@H]2Cc3nc(N)nc(C)c3C(=O)N2)cnc1N [Compound 238, (R)-2-Amino-7-[2-(5-amino-6-ethoxy-pyrazin-2-yl)-4-methoxy-phenyl]-4-methyl-7,8-dihydro-6H-pyrido[4,3-d]pyrimidin-5-one] | < 10
26 | CCOc1cncc(-c2cc(OC)ccc2[C@H]2Cc3nc(N)nc(C)c3C(=O)N2)n1 [Compound 239, (R)-2-Amino-7-[2-(6-ethoxy-pyrazin-2-yl)-4-methoxy-phenyl]-4-methyl-7,8-dihydro-6H-pyrido[4,3-d]pyrimidin-5-one] | < 10

Reference: US20070123546A1, “2-amino-7,8-dihydro-6H-pyrido[4,3-d]pyrimidin-5-ones” (Chiron Corporation, priority 2005, published 2007)
